Experimental data as given in patent US20240325369A1 (priority 2021, published 2024).
Several values for one entry are separate records, joined by “and”; a condition that tells them apart may be missing. Equal entries are not always repeated. Where two headings read alike, the source gives them in different places.

Test system: metastatic castration-resistant prostate cancer (mCRPC) with DNA-repair anomalies
Conditions: for CTC Response (CTC = 0 at week 8), % of subjects / CTC Response (CTC = 0 at week 8), number of subjects: ITT with baseline CTC >0 (N=131)
Protocol: The planned sample size was approximately 120 subjects with measurable disease who were biomarker-positive (approximately 75 subjects with DNA repair anomalies in BRCA [BRCA1 or BRCA2] and approximately 45 subjects with biallelic DNA-repair anomalies in non-BRCA [ATM, FANCA, PALB2, CHEK2, BRIP1, or HDAC2]).
Efficacy objectives were evaluated for subjects meeting the biomarker selection criteria described in the protocol. All subjects were monitored for safety during the study period, and up to 30 days after the last dose of study drug. Treatment continued until disease progression, unacceptable toxicity, death, or termination of the study by the sponsor.
Diagnosis and Main Criteria for Inclusion: The target population consisted of male subjects over the age of 18 years with mCRPC and DNA-repair anomalies (biallelic mutations and germline pathogenic mutations only for BRCA1 or BRCA2 mutations) who had received at least 1 prior taxane-based chemotherapy and at least 1 prior AR targeted therapy (second-generation or later). Subjects were asked to provide a tumor tissue sample (archival or recently collected, if available), and a blood sample for analysis of DNA-repair anomalies using a sponsor-validated assay.
Criteria for Evaluation: Efficacy assessments included chest, abdomen, and pelvis CT or MRI scans and whole-body bone scans (^99mTc) to evaluate objective response and disease progression.
The primary endpoint was ORR and summarized for the BRCA analysis set along with the 95% 2-sided exact CI. In addition, the counts and percentage of subjects in each response category (CR. PR, etc.) were tabulated. ORR in non-BRCA subjects was analyzed in the same way.
Descriptive summaries of CTC response were generated for BRCA and non-BRCA analysis sets, measurable and non-measurable subgroups and tabulated with its 2-sided 95% exact CI. Waterfall plots of percent change in CTC were also presented, showing the percentage change in CTC counts from baseline to 8 weeks, as well as maximal CTC count declines. All time to event secondary endpoints were evaluated using Kaplan-Meier method for BRCA and non-BRCA analysis sets. Median time to event and the corresponding 95% CI were provided. Descriptive summaries were provided for BRCA and non-BRCA analysis sets.
Time to degradation was determined using the following meaningful change threshold values: FACT-P Total (10-point reduction from baseline), EQ-5D-5L Index (0.09-point reduction from baseline). EQ-5D-5L VAS (10-point reduction from baseline), and BPI SF worst pain intensity item (30% reduction from baseline).
The primary endpoint was ORR, defined as the proportion of subjects with BRCA DNA-repair anomalies and measurable disease whose best response was either CR or PR as defined by RECIST 1.1 (Eisenhauer et al 2009) and who had no evidence of bone progression according to the PCWG3 criteria (Scher et al 2016).
ORR final analysis was performed approximately 6 months from Cycle 1 Day 1 of the last subject with a BRCA DNA-repair anomaly and measurable disease. Objective response as determined by investigator assessment was considered as the primary analysis.
Subjects who discontinued the study without a response assessment were considered as non-responders in the analysis. The objective response rate was calculated and its 2-sided 95% exact CI presented. In addition, the counts and percentage of subjects in each response category (CR, PR, etc.) were tabulated.
The following analyses of CTC response were performed for BRCA and non-BRCA analysis sets, measurable and non-measurable subgroups: • Descriptive summaries • CTC response rate was tabulated with its 2-sided 95% exact CI
All time to event secondary endpoints were evaluated using Kaplan-Meier method for BRCA and non-BRCA analysis sets. Median time to event and the corresponding 95% CI were provided. Descriptive summaries were provided for BRCA and non-BRCA analysis sets.

[1] = BRCA, ITT (N=142), Kaplan-Meier, 300 mg once daily
[2] = BRCA, 300 mg once daily, listed as niraparib
[3] = BRCA, measurable ITT (N=76), 300 mg once daily
[4] = BRCA, measurable ITT responders (N=26), 300 mg once daily
[5] = BRCA, measurable ITT responders (N=26), Kaplan-Meier, 300 mg once daily
[6] = BRCA, patients with baseline CTC ≥5 (n=117), 300 mg once daily
[7] = NON-BRCA, ITT (N=81), 300 mg once daily
[8] = NON-BRCA, measurable ITT responders (N=5), 300 mg once daily
[9] = NON-BRCA, measurable ITT responders (N=5), Kaplan-Meier, 300 mg once daily
[10] = Non-BRCA (n = 81), 300 mg once daily
[11] = Non-BRCA, patients with baseline CTC ≥5 (n=60), 300 mg once daily

NC(=O)c1cccc2cn(-c3ccc([C@@H]4CCCNC4)cc3)nc12 [Niraparib, 2-[4-[(3S)-piperidin-3-yl]phenyl]-2H-indazole-7-carboxamide]
Time to PSA progression: time to event, Median [1]: 5.13 months | Time to radiographic progression: time to event, 25th percentile [1]: 4.76 months | Time to radiographic progression: time to event, 75th percentile [1]: 11.63 months | Time to symptomatic skeletal event (SSE): time to event, Median [1]: 13.80 months | Time to symptomatic skeletal event: time to event, 25th percentile [1]: 7.52 months | rPFS: time to event, 25th percentile [1]: 4.44 months | rPFS: time to event, 75th percentile [1]: 11.56 months | CTC Response (CTC = 0 at week 8), % of subjects (BRCA, 300 mg once daily): (23.7%) | CTC Response (CTC = 0 at week 8), number of subjects (BRCA, 300 mg once daily): 31 | CTC Response (CTC = 0 at week 8), % of subjects [2]: (23.7) % | CTC Response (CTC = 0 at week 8), number of subjects [2]: 31/131 | DOR, median (range) (BRCA, as printed in Table 13, 300 mg once daily): 6.28 mo | Best Overall Response: Complete Response (CR), % of subjects [3]: 2.6% | Best Overall Response: Complete Response (CR), number of subjects [3]: 2 | Best Overall Response: Not Available (NA), % of subjects [3]: 9.2% | Best Overall Response: Not Available (NA), number of subjects [3]: 7 | Best Overall Response: Partial Response (PR), % of subjects [3]: 31.6% | Best Overall Response: Partial Response (PR), number of subjects [3]: 24 | Best Overall Response: Progressive Disease (PD), % of subjects [3]: 21.1% | Best Overall Response: Progressive Disease (PD), number of subjects [3]: 16 | Best Overall Response: Stable Disease (SD), % of subjects [3]: 35.5% | Best Overall Response: Stable Disease (SD), number of subjects [3]: 27 | ORR (objective response rate, RECIST 1.1, no bone progression per PCWG3), % of subjects [3]: 34.2% | ORR (objective response rate, RECIST 1.1, no bone progression per PCWG3), number of subjects [3]: 26 | Objective response confirmed: Complete Response (CR), % of subjects [3]: 2.6% | Objective response confirmed: Complete Response (CR), number of subjects [3]: 2 | Objective response confirmed: Partial Response (PR), % of subjects [3]: 31.6% | Objective response confirmed: Partial Response (PR), number of subjects [3]: 24 | Duration of objective response: 6-month event-free rate [4]: 0.464 | Duration of objective response: 12-month event-free rate [4]: 0.000 | Duration of objective response: 18-month event-free rate [4]: 0.000 | Duration of objective response: 24-month event-free rate [4]: 0.000 | Duration of objective response: Censored, % of subjects [4]: (23.1%) | Duration of objective response: Censored, number of subjects [4]: 6 | Duration of objective response: Event, % of subjects [4]: (76.9%) | Duration of objective response: Event, number of subjects [4]: 20 | Duration of objective response: time to event, 25th percentile [5]: 3.75 months | Duration of objective response: time to event, 75th percentile [5]: 7.20 months | Duration of objective response: time to event, Median [5]: 5.55 months | CTC conversion (CTC count ≥5/7.5 mL blood at baseline to <5/7.5 mL blood at nadir), % of subjects [6]: 47.0% | CTC conversion (CTC count ≥5/7.5 mL blood at baseline to <5/7.5 mL blood at nadir), number of subjects [6]: 55 | Time to PSA progression: 12-month event-free rate [7]: 0.000 | Time to PSA progression: 18-month event-free rate [7]: 0.000 | Duration of objective response: 6-month event-free rate [8]: 0.500 | Duration of objective response: 18-month event-free rate [8]: 0.000 | Duration of objective response: 24-month event-free rate [8]: 0.000 | Duration of objective response: Censored, % of subjects [8]: (20.0%) | Duration of objective response: Censored, number of subjects [8]: 1 | Duration of objective response: Event, % of subjects [8]: (80.0%) | Duration of objective response: Event, number of subjects [8]: 4 | Duration of objective response: time to event, 25th percentile [9]: 2.96 months | Duration of objective response: time to event, 75th percentile [9]: 6.95 months | Duration of objective response: time to event, Median [9]: 5.16 months | CRR (composite response rate), % of subjects [10]: 14.8% | CRR (composite response rate), number of subjects [10]: 12 | PSA50 (≥50% decline in prostate-specific antigen), % of subjects [10]: 4.9% | PSA50 (≥50% decline in prostate-specific antigen), number of subjects [10]: 4 | CTC conversion (CTC count ≥5/7.5 mL blood at baseline to <5/7.5 mL blood at nadir), % of subjects [11]: 15.0% | CTC conversion (CTC count ≥5/7.5 mL blood at baseline to <5/7.5 mL blood at nadir), number of subjects [11]: 9 | Best Overall Response: Complete Response (CR), number of subjects (in vivo): 0 | Best Overall Response: Not Available (NA), % of subjects (in vivo): (17.0%) | Best Overall Response: Not Available (NA), number of subjects (in vivo): 8 | Best Overall Response: Partial Response (PR), % of subjects (in vivo): (10.6%) | Best Overall Response: Partial Response (PR), number of subjects (in vivo): 5 | Best Overall Response: Progressive Disease (PD), % of subjects (in vivo): (31.9%) | Best Overall Response: Progressive Disease (PD), number of subjects (in vivo): 15 | Best Overall Response: Stable Disease (SD), % of subjects (in vivo): (40.4%) | Best Overall Response: Stable Disease (SD), number of subjects (in vivo): 19 | Duration of objective response: 12-month event-free rate (in vivo): 0.000 | Objective response confirmed: Complete Response (CR), number of subjects (in vivo): 0 | Objective response confirmed: Partial Response (PR), % of subjects (in vivo): 5 (10.6%) | Objective response confirmed: Partial Response (PR), number of subjects (in vivo): 5 (10.6%) | Overall survival: 6-month event-free rate (in vivo): 0.841 and 0.709 and 0.793 | Overall survival: 12-month event-free rate (in vivo): 0.564 and 0.413 and 0.508 | Overall survival: 18-month event-free rate (in vivo): 0.334 and 0.198 and 0.278 | Overall survival: 24-month event-free rate (in vivo): 0.152 and 0.111 and 0.136 | Overall survival: time to event, 25th percentile (in vivo): 8.31 months and 4.86 months and 7.16 months | Overall survival: time to event, 75th percentile (in vivo): 19.52 months and 16.53 months and 19.42 months | Time to PSA progression: 6-month event-free rate (in vivo): 0.144 | Time to PSA progression: 24-month event-free rate (in vivo): 0.000 | Time to PSA progression: Censored, % of subjects (in vivo): (51.9%) | Time to PSA progression: Censored, number of subjects (in vivo): 57 and 42 | Time to PSA progression: Event, % of subjects (in vivo): (48.1%) | Time to PSA progression: time to event, 25th percentile (in vivo): 2.79 months | Time to PSA progression: time to event, 75th percentile (in vivo): 4.63 months and 8.31 months | Time to PSA progression: time to event, Median (in vivo): 3.65 months | Time to radiographic progression: 6-month event-free rate (in vivo): 0.299 | Time to radiographic progression: Censored, % of subjects (in vivo): (34.6%) | Time to radiographic progression: Censored, number of subjects (in vivo): 28 | Time to radiographic progression: Event, number of subjects (in vivo): 53 | Time to radiographic progression: time to event, 25th percentile (in vivo): 1.87 months | Time to radiographic progression: time to event, 75th percentile (in vivo): 8.11 months | Time to symptomatic skeletal event (SSE): time to event, Median (in vivo): 10.35 months | Time to symptomatic skeletal event: 6-month event-free rate (in vivo): 0.792 | Time to symptomatic skeletal event: 12-month event-free rate (in vivo): 0.379 | Time to symptomatic skeletal event: 18-month event-free rate (in vivo): 0.190 | Time to symptomatic skeletal event: Censored, % of subjects (in vivo): (76.5%) | Time to symptomatic skeletal event: Censored, number of subjects (in vivo): 62 | Time to symptomatic skeletal event: time to event, 25th percentile (in vivo): 6.51 months | Time to symptomatic skeletal event: time to event, 75th percentile (in vivo): 15.54 months | rPFS: 6-month event-free rate (in vivo): 0.289 | rPFS: Censored, % of subjects (in vivo): (29.6%) | rPFS: Censored, number of subjects (in vivo): 24 | rPFS: Event, % of subjects (in vivo): (70.4%) | rPFS: Event, number of subjects (in vivo): 57 | rPFS: time to event, 25th percentile (in vivo): 1.87 months | rPFS: time to event, 75th percentile (in vivo): 6.47 months
